Results published in patent EP0628039B1, “2,3,4,5-TETRAHYDRO-1H-3-BENZAZEPINES AND PHARMACEUTICALLY ACCEPTABLE ACID ADDITION SALTS THEREOF” (NOVO NORDISK A/S, priority 1992, dated 1993).
Where two headings read alike, the source gives them in different places.

Target: T1, dopamine D1 receptor (Rattus norvegicus, UniProt P18901)
T1 construct: homogenates from rat striatum; from tissue; host or cells: rat striatum homogenate
Assay: Binding to dopamine D1 receptor in homogenates from rat striatum

T1 sequence (P18901 whole entry): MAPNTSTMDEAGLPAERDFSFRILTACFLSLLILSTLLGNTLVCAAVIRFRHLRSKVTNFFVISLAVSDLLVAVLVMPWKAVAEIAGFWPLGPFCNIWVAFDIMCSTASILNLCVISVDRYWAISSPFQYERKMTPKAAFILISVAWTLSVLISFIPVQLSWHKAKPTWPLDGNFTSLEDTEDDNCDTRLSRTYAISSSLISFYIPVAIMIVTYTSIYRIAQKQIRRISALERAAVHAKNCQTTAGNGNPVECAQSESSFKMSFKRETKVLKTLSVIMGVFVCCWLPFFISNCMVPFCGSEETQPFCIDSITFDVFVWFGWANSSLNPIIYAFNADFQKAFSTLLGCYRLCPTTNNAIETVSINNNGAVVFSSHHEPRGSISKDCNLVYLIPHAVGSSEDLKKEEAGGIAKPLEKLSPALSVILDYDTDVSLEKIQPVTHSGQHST

Compound	IC50 [nM]	IC50 (homogenates from rat striatum, read-out: IC50 (nM) Dopamine D1 receptor) [nM]
CN1CCc2cc(Cl)c(O)cc2C(c2cc(Br)cc3c2OCC3)C1 (single isomer, unassigned; (+)) [Example 1, (+) 8-Chloro-5-(5-bromo-2,3-dihydrobenzofuran-7-yl)-7-hydroxy-3-methyl-2,3,4,5-tetrahydro-1H-3-benzazepine]	0.7	
CN1CCc2cc(Cl)c(O)cc2C(c2c(Cl)c(Cl)cc3c2OCC3)C1 (single isomer, unassigned; (+)) [Example 3, (+)8-Chloro-5-(5,6-dichloro-2,3-dihydrobenzofuran-7-yl)-7-hydroxy-3-methyl-2,3,4,5-tetrahydro-1H-3-benzazepine]		0.9
